# In patent US12043845B2, “Methods of cell culture” (Polpharma Biologics S.A., priority 2017, dated 2024):
# Experiments:
# [1] = system: CHO cells producing ustekinumab; assay: Cation exchange chromatography of acidic, main and basic species of ustekinumab from CHO cells cultured with citrulline; format: cell-based, Chinese hamster
# Protocol: (§1) The stirred tank reactors (STRs) were inoculated with the cell line C20 or with the cell line C69 in pre-heated production medium (PolCHO-P, available from GE healthcare, Catalogue Number G3258.3050), at a target density of 1.0*10^6 viable cells (vc) mL^−1. From day 3 on, 4.2% (v/v) of feed A (available from GE healthcare, Catalogue Number G3259.3010) per day was added at a continuous rate over 24 hours (equivalent to 2.9 g glucose L^−1 day^−1). If required, a D-glucose solution was used to increase glucose concentration in the broth to 4 g L^−1. In addition, 0.42% (v/v) of feed B (available from GE healthcare, Catalogue Number G3260.0001) was added every day as a bolus. For cell line C20 different concentrations of citrulline (5 g/l, 8 g/l and 12 g/l) were added to the medium and to feed A. For cell line C69 10 g/l citrulline in combination with 40 mM sucrose were added to the medium and to feed A.
# Additional samples of approximately 30 mL were collected on days 6, 10 and 14, centrifuged and stored in −80° C. for product quality analysis. […]
# (§2) For data evaluation the Waters Empower 3 software was used. The sample composition was determined by detecting peaks based on their retention time and the relative proportions of each peak were calculated from the peak areas. […]
# [2] = system: CHO cells producing natalizumab; assay: Cation exchange chromatography of acidic and basic species of natalizumab from CHO cells cultured with citrulline; format: cell-based, Chinese hamster; settings: increasing concentrations of citrulline (8, 12 g/l), 14 days
# Protocol: Cell lineC4 expressing natalizumab was cultured in 15 ml AMBR microbioreactors. Dissolved oxygen tension (DOT) was controlled at 40% and the temperature maintained at 36.8° C. during the first 4 days with a temperature shift to 33° C. on day 5 for the rest of the cultivation time. The targeted viable cell concentration at inoculation was 1.0×10^6±0.1 viable cells mL^−1. The post inoculation volume of the production stage bioreactors was set to 15 mL in the microbioreactors of the AMBR system. The pH set point was 7.0±0.1. The basal medium was PolCHO-P CD (available from GE healthcare). From day 3 on, 4.2% (v/v) of PolCHO feed A (available from GE healthcare) per day was added as a bolus. If required, a D-glucose solution was used to increase glucose concentration in the broth to 4 g L^−1. In addition, 0.42% (v/v) of PolCHO feed B (available from GE healthcare) was added every day as a bolus. […]
# The separation was carried out by Cation Exchange High Performance Liquid Chromatography on the UPLC H-Class Bio System using UV detection under Empower™ Software control. […] The column temperature was 40° C. and elution was monitored at 220 nm.
# as §2
# [3] = system: CHO cells producing ustekinumab; assay: Cell diameter by LUNA cell counter; format: cell-based, Chinese hamster; settings: citrulline added, vs control without citrulline (FIG. 2)
# Protocol: as §1
# b) In another set of experiments cell line C20 expressing ustekinumab was selected. This cell line was thawed and cultured in 25 mL shake flasks (SFs) containing PolCHO-P CD (GE Healthcare) medium with methotrexate and geneticin. […] Every day before feeding, glucose concentration was measured. […]
# The viable cell concentration, viability and cell size were determined using a LUNA™ cell counter with the following protocol: […]
# [4] = system: CHO cells producing ustekinumab; assay: Specific production rate (Qp) for ustekinumab; format: cell-based, Chinese hamster; settings: citrulline added, vs control without citrulline (FIG. 3)
# Protocol: as §1, with “For cell line C20 different concentrations of citrulline (5 g/l, 8 g/l and 12 g/l) were added to the medium and to feed A. For cell line C69 10 g/l citrulline in combination with 40 mM sucrose were added to the medium and to feed A.” left out
# b) In another set of experiments cell line C20 expressing ustekinumab was selected. […] Every day before feeding, glucose concentration was measured. […]
# (§3) The Octet system performs label-free quantitation of antibodies, proteins, peptides, DNA and other biomolecules and provides kinetic characterization of biomolecular binding interactions. […] The binding rates of the test samples are measured and interpolated from a standard curve generated from a similar or equivalent protein to determine the concentration of the protein. […]
# [5] = system: CHO cells producing omalizumab; assay: Specific production rate (Qp) for omalizumab; format: cell-based, Chinese hamster; settings: citrulline added, vs control without citrulline (FIG. 8)
# Protocol: CHO cell line 230×846 expressing the anti-IgE antibody omalizumab was selected for this experiment. The cell line was thawed and cultured in 25 mL shake flasks (SFs) containing PowerCHO-2 CD medium (Lonza) with 4 mM L-glutamine and 1% (v/v) Fe-citrate solution. Subsequently, the cells were expanded in SFs with increasing volume as seed train. 12 SFs were inoculated at a concentration of 0.5·10^6 vc mL^−1. The SFs were inoculated in 25 mL PowerCHO-2-CD medium containing L-glutamine and Fe-citrate and placed on a shaking plateau in an incubator at 37° C. On the day of inoculation, 2% (v/v) of BC feed and 0.2% (v/v) of cys/tyr feed was given. The glucose concentration was measured every day before feeding. From day 3 on, feeding was done based on glucose consumption of the previous day, aiming for a glucose concentration of 3.5 g/L. Different concentrations of citrulline were added to the medium and BC feed.
# as §3
# [6] = system: CHO cells producing ustekinumab; assay: Rapifluor-MS released N-glycan analysis of ustekinumab; format: cell-based, Chinese hamster; settings: 5 g/l and 8 g/l citrulline, 12 or 14 days, vs control
# Protocol: The shake flasks were inoculated in 25 mL Actipro medium (available from GE healthcare, Catalogue number SH31039.01) and placed on a shaking plateau in an incubator at 37° C. On the day of inoculation, 2% (v/v) of Cell boost 7A (available from GE healthcare, Catalogue number SH31026.02) and 0.2% (v/v) of Cell boost 7B (available from GE healthcare, Catalogue number SH31027.01) was given. From day 3 on, a flat feed was given of 4% (v/v) of Cell boost per day. Every day before feeding, glucose concentration was measured. If required, a D-glucose solution was used to increase glucose concentration in the broth to 4 g L^−1, before feeding. In addition, 0.4% (v/v) of Cell boost 7B was added every day as a bolus. Different concentrations of citrulline (5 g/l and 8 g/l) were added to the medium and to Cell boost 7A. At day 5 after inoculating the cells into the cell culture medium the temperature of the cell culture was reduced to 31° C.±0.2° C.
# The N-glycan composition and relative distribution thereof was analyzed using the Rapifluor MS N-Glycan Kit purchased from Waters, using the manufacturer's instructions. It comprises denaturation and release of N-linked glycans by PNGase F from Protein A purified material. The released glycans are then labeled with the proprietary Rapifluor label, which contains a fluorescent moiety and a proton capturing moiety. […]
# [7] = system: CHO cells; assay: Citrulline concentration in culture medium during fermentation (UPLC-MS); format: in vitro ADME, Chinese hamster; settings: cell line C69, stirred tank reactor, 10 g/l citrulline, days 8, 11, 13, 14
# Protocol: Additional samples of approximately 30 mL were collected on days 6, 10 and 14, centrifuged and stored in −80° C. for product quality analysis. For the experiments with cell line C69 samples were also taken to determine the concentration of citrulline at different time points (days 8, 11, 13 and 14) during the bioreactor run.
# To determine if citulline can be metabolised by CHO cells clarified samples were taken from the stirred tank reactor run with clone C69. Quantification of the concentration of citrulline during the culture was standardized using a 10 g/l citulline solution in WFI and the PolCHO medium was used as a negative control.
# About 1 mL of culture medium was centrifuged in an Eppendorf centrifuge at 15000 rpm and at 4° C. for 10 minutes. […]
# Using reference sample, the molecular mass of citrulline was confirmed by UPLC-MS to be 175.08 Da. The concentration of citrulline in the reference sample was 55.84 mM as determined by qNMR. The citrulline concentrations in culture medium samples of days 8, 11, 13 and 14 were determined by UPLC-MS analysis after appropriate dilution of the samples and by using external calibration lines prepared using the reference sample. No citrulline was detected in POLCHO medium (see FIG. 11).
smiles,measurement,setting,value
NC(=O)NCCC[C@H](N)C(=O)O [citrulline],basic peaks of ustekinumab,"[1]; 12 g L^-1 citrulline, day 14, control 11%",22%
same,acidic 2 peaks of ustekinumab,"[1]; increasing concentrations of citrulline (5, 8, 12 g/l), day 14, vs control",decreased dose-dependently
same,sum of acidic peaks of natalizumab,[2],decreased dose-dependently
same,sum of basic peaks of natalizumab,[2],increased dose-dependently
same,diameter of the cells,[3],increases
same,specific production rate Qp for ustekinumab,[4],increases
same,specific production rate Qp for omalizumab,[5],same increase
same,"G0F, G1F, G1'F, G2F and sum of sialylated species",[6],no differences
same,concentration of citrulline during the fermentation,[7],does not change significantly
